Experimental data from patent publication US10562912B2 (C&C Research Laboratories, priority 2013, dated 2020).

Assays:
Assay type in all cases: cell-based
STAT3 = target: T1, STAT3 (Homo sapiens, UniProt P40763); assay: STAT3 reporter gene assay (luciferase), LNCaP stable cell line (pSTAT3-TA-luc), IL-6 stimulation
T1 construct: plasmid pSTAT3-TA-luc), which contains a stably operating STAT3 promoter; endogenous in cells
Summary of the method: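 LNCaP cells stably carrying pSTAT3-TA-luc, in RPMI1640 with 3% DCC-FBS, were treated with compound and then stimulated with 10 ng/mL IL-6 for 24–48 h at 37 °C. Luciferase activity was measured in lysates. A parallel plate measured viability by CellTiter-Glo, with stimulated 0.1% DMSO wells as the positive control.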

MDA-MB-231 = assay: Cell growth inhibition assay, breast cancer cell line MDA-MB-231; settings: Homo sapiens; MDA-MB-231 breast cancer cell line, 5,000 cells/well
LNCaP = assay: Cell growth inhibition assay, prostate cancer cell line LNCaP (medium with 10 ng/mL IL-6); settings: Homo sapiens, medium supplemented with 10 ng/mL of IL-6, 10,000 cells/well

T1 sequence (P40763 whole entry): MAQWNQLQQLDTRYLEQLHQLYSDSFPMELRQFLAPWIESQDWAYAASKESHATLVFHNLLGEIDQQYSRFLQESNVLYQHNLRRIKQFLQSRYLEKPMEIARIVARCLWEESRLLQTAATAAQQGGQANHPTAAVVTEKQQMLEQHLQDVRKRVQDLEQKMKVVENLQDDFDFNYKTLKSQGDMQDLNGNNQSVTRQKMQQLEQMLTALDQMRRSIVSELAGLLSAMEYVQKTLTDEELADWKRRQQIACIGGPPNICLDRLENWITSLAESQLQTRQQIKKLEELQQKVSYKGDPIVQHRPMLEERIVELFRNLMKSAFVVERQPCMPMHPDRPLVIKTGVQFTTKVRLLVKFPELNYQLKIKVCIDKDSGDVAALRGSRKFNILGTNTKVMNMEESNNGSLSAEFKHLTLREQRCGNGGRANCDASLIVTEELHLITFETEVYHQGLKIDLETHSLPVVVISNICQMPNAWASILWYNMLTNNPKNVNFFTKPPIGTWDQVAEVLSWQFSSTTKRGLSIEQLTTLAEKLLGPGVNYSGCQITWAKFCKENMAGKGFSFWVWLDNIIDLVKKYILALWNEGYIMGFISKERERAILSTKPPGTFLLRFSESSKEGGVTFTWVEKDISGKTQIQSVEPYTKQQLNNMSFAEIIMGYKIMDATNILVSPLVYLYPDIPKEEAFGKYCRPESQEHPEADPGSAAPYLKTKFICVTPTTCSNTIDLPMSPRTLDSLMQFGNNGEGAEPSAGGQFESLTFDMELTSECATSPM

| IC50 (STAT3) [µM] | IC50 (MDA-MB-231) [µM] | IC50 (LNCaP) [µM] | SMILES |
| --- | --- | --- | --- |
| 0.21 | 0.032 | 0.6 | CS(=O)(=O)Nc1ccc2sc(C(=O)Nc3cc(OC(F)F)cc(-c4ccc(F)cc4F)c3)cc2c1 [Example 370, N-(5-(difluoromethoxy)-2′,4′-difluoro-[1,1′-biphenyl]-3-yl)-5-(methylsulfonamido)benzo[b]thiophene-2-carboxamide] |
| 0.34 | 0.052 | 0.82 | COc1cc(NC(=O)c2cc3ccc(NS(C)(=O)=O)cc3[nH]2)cc(C(C)(C)c2cccc(OC(F)(F)F)c2)c1 [Example 4, N-(3-methoxy-5-(2-(3-(trifluoromethoxy)phenyl)propan-2-yl)phenyl)-6-(methylsulfonamido)-1H-indole-2-carboxamide] |
| 0.7 | 0.28 | 3.8 | CS(=O)(=O)Nc1ccc2cc(C(=O)Nc3cc(OC(F)F)cc(-c4ccc(F)cc4F)c3)[nH]c2c1 [Example 369, N-(5-(difluoromethoxy)-2′,4′-difluoro-[1,1′-biphenyl]-3-yl)-6-(methylsulfonamido)-1H-indole-2-carboxamide] |
| 0.22 | 0.03 | 0.48 | COc1cc(NC(=O)c2cc3ccc(NS(C)(=O)=O)cc3[nH]2)cc(C(C)(C)c2cc(OC)cc(OC(F)(F)F)c2)c1 [Example 13, N-(3-methoxy-5-(2-(3-methoxy-5-(trifluoromethoxy)phenyl)propan-2-yl)phenyl)-6-(methylsulfonamido)-1H-indole-2-carboxamide] |
| 0.31 | 0.35 | 2.4 | CC(C)(c1cccc(NC(=O)c2cc3ccc(NS(C)(=O)=O)cc3[nH]2)c1)c1ccccc1F [Example 7, N-(3-(2-(2-fluorophenyl)propan-2-yl)phenyl)-6-(methylsulfonamido)-1H-indole-2-carboxamide] |
| 0.2 | 0.089 | 1.1 | CS(=O)(=O)Nc1ccc2sc(C(=O)Nc3cccc(C4(c5ccccc5)CC4)c3)cc2c1 [Example 421, 5-(methylsulfonamido)-N-(3-(1-phenylcyclopropyl)phenyl)benzo[b]thiophene-2-carboxamide] |
| 0.55 | 0.62 | 3.5 | Cc1c(C(=O)Nc2cccc(C(C)(C)c3ccc(F)cc3)c2)sc2cc(NS(C)(=O)=O)ccc12 [Example 51, N-(3-(2-(4-fluorophenyl)propan-2-yl)phenyl)-3-methyl-6-(methylsulfonamido)benzo[b]thiophene-2-carboxamide] |
| 0.61 | 1 | 4.7 | CC(C)(c1ccc(F)cc1)c1cccc(NC(=O)c2cc3cc(NS(C)(=O)=O)ccc3o2)c1 [Example 28, N-(3-(2-(4-fluorophenyl)propan-2-yl)phenyl)-5-(methylsulfonamido)benzofuran-2-carboxamide] |
| 0.26 | 0.094 | 1.1 | C=C(c1ccccc1)c1cccc(NC(=O)c2cc3cc(NS(C)(=O)=O)ccc3s2)c1 [Example 423, 5-(methylsulfonamido)-N-(3-(1-phenylvinyl)phenyl)benzo[b]thiophene-2-carboxamide] |
| 0.82 | 2.4 | 7.6 | CS(=O)(=O)Nc1ccc2cc(C(=O)Nc3cc(-c4ccc[nH]4)cc(-c4ccc(F)cc4F)c3)[nH]c2c1 [Example 352, N-(2′,4′-difluoro-5-(1H-pyrrol-2-yl)-[1,1′-biphenyl]-3-yl)-6-(methylsulfonamido)-1H-indole-2-carboxamide] |
| 0.28 | 0.37 | 1.7 | CS(=O)(=O)Nc1ccc2oc(C(=O)Nc3cc(Br)cc(-c4ccc(F)cc4F)c3)cc2c1 [Example 306, N-(5-bromo-2′,4′-difluoro-[1,1′-biphenyl]-3-yl)-5-(methylsulfonamido)benzofuran-2-carboxamide] |
| 3.6 | 0.14 | 3.7 | CS(=O)(=O)Nc1ccc2cc(C(=O)Nc3cc(-c4ccc(F)cc4F)cc(C(F)(F)F)c3)[nH]c2c1 [Example 313, N-(2′,4′-difluoro-5-(trifluoromethyl)-[1,1′-biphenyl]-3-yl)-6-(methylsulfonamido)-1H-indole-2-carboxamide] |
| 0.96 | 0.54 | 4 | CS(=O)(=O)Nc1ccc2cc(C(=O)Nc3cccc(-c4ccc(F)cc4F)c3)sc2c1 [Example 242, N-(2′,4′-difluoro-[1,1′-biphenyl]-3-yl)-6-(methylsulfonamido)benzo[b]thiophene-2-carboxamide] |
| 0.33 | 0.71 | 5.7 | CS(=O)(=O)Nc1ccc2cc(C(=O)Nc3cc(-c4cccs4)cc(-c4ccc(F)cc4F)c3)[nH]c2c1 [Example 354, N-(2′,4′-difluoro-5-(thiophen-2-yl)-[1,1′-biphenyl]-3-yl)-6-(methylsulfonamido)-1H-indole-2-carboxamide] |
| > 10 | > 10 | > 10 | CS(=O)(=O)Nc1ccc2cc(C(=O)Nc3cccc(S(=O)(=O)c4cc(O)cc(C#N)c4)c3)[nH]c2c1 [Example 417, N-(3-((3-cyano-5-hydroxyphenyl)sulfonyl)phenyl)-6-(methylsulfonamido)-1H-indole-2-carboxamide] |
| 5.2 | 4.7 | > 10 | CC(C)(c1cccc(NC(=O)c2cc3ccc(N(CC(N)=O)S(C)(=O)=O)cc3[nH]2)c1)c1cc(O)cc(OC(F)(F)F)c1 [Example 436, 6-(N-(2-amino-2-oxoethyl)methylsulfonamido)-N-(3-(2-(3-hydroxy-5-(trifluoromethoxy)phenyl)propan-2-yl)phenyl)-1H-indole-2-carboxamide] |
| > 10 | > 10 | > 10 | CS(=O)(=O)Nc1ccc2cc(C(=O)Nc3cc(-c4ccc(O)nc4)cc(-c4ccc(F)cc4F)c3)[nH]c2c1 [Example 364, N-(2′,4′-difluoro-5-(6-hydroxypyridin-3-yl)-[1,1′-biphenyl]-3-yl)-6-(methylsulfonamido)-1H-indole-2-carboxamide] |
| 0.19 | 0.026 | 0.49 | CC(C)(c1cccc(NC(=O)c2cc3cc(NS(C)(=O)=O)ccc3s2)c1)c1ccccc1F [Example 31, N-(3-(2-(2-fluorophenyl)propan-2-yl)phenyl)-5-(methylsulfonamido)benzo[b]thiophene-2-carboxamide] |
| 6.8 | 8.4 | > 10 | CS(=O)(=O)Nc1ccc2cc(C(=O)Nc3cccc(S(=O)(=O)c4cccc(N)c4)c3)[nH]c2c1 [Example 415, N-(3-((3-aminophenyl)sulfonyl)phenyl)-6-(methylsulfonamido)-1H-indole-2-carboxamide] |
| > 10 | 6.1 | > 10 | CC(C)(c1cccc(CN2CCNCC2)c1)c1cc(Br)cc(NC(=O)c2cc3ccc(NS(C)(=O)=O)cc3[nH]2)c1 [Example 119, N-(3-bromo-5-(2-(3-(piperazin-1-ylmethyl)phenyl)propan-2-yl)phenyl)-6-(methylsulfonamido)-1H-indole-2-carboxamide] |
| 6.5 | 2.9 | > 10 | CS(=O)(=O)Nc1ccc2cc(C(=O)Nc3cccc(C(=O)c4ccccc4)c3)[nH]c2c1 [Example 434, N-(3-benzoylphenyl)-6-(methylsulfonamido)-1H-indole-2-carboxamide] |
| 0.19 | 0.23 | 2.5 | CC(C)(c1ccc(F)cc1)c1cccc(NC(=O)c2cc3ccc(NS(C)(=O)=O)cc3[nH]2)c1 [Example 1, N-(3-(2-(4-fluorophenyl)propan-2-yl)phenyl)-6-(methylsulfonamido)-1H-indole-2-carboxamide] |
| 0.23 | 0.02 | 0.72 | COc1cc2cc(C(=O)Nc3cc(Br)cc(-c4ccc(F)cc4F)c3)[nH]c2cc1NS(C)(=O)=O [Example 303, N-(5-bromo-2′,4′-difluoro-[1,1′-biphenyl]-3-yl)-5-methoxy-6-(methylsulfonamido)-1H-indole-2-carboxamide] |
| 0.22 | 0.09 | 1.1 | COc1cc2cc(C(=O)Nc3cccc(C(C)(C)c4ccc(F)cc4)c3)[nH]c2cc1NS(C)(=O)=O [Example 3, N-(3-(2-(4-fluorophenyl)propan-2-yl)phenyl)-5-methoxy-6-(methylsulfonamido)-1H-indole-2-carboxamide] |
| 8.1 | > 10 | > 10 | CNC(=O)c1cc(NC(=O)c2cc3ccc(NS(C)(=O)=O)cc3[nH]2)cc(-c2ccc(F)cc2F)c1 [Example 318, N-(2′,4′-difluoro-5-(methylcarbamoyl)-[1,1′-biphenyl]-3-yl)-6-(methylsulfonamido)-1H-indole-2-carboxamide] |
| 1.4 | 4 | 5.2 | CC(C)(c1cc(Br)cc(NC(=O)c2cc3cc(NS(C)(=O)=O)ccc3s2)c1)c1cc(OCC(N)=O)ccc1F [Example 44, N-(3-(2-(5-(2-amino-2-oxoethoxy)-2-fluorophenyl)propan-2-yl)-5-bromophenyl)-5-(methylsulfonamido)benzo[b]thiophene-2-carboxamide] |
| 0.082 | 0.029 | 0.13 | CC(C)(c1cc(Br)cc(NC(=O)c2cc3cc(NS(C)(=O)=O)ccc3s2)c1)c1cccc(OC(F)F)c1 [Example 46, N-(3-bromo-5-(2-(3-(difluoromethoxy)phenyl)propan-2-yl)phenyl)-5-(methylsulfonamido)benzo[b]thiophene-2-carboxamide] |
| 0.15 | 0.1 | 0.5 | CS(=O)(=O)Nc1ccc2sc(C(=O)Nc3cccc(C4(c5ccc(F)cc5)CC4)c3)cc2c1 [Example 424, N-(3-(1-(4-fluorophenyl)cyclopropyl)phenyl)-5-(methylsulfonamido)benzo[b]thiophene-2-carboxamide] |
